From patent US12662707B2, “MYC amplification drives resistance to pan-RAS inhibitors in pancreatic cancer” (The Trustees of Columbia University in the City of New York, priority 2024, dated 2026)

How the values were obtained:
[1] = system: autochthonous KPCY pancreatic tumors; test: Short-term study in KPCY mice; type: in vivo, mouse; conditions: daily 25 mg/kg, two weeks
Procedure: Animals were randomized into groups and treated with Vehicle (n=6) or RMC-7977 (25 mg/kg; n=8). Treatments were performed every day via oral gavage for 15 days and ultrasounds were performed on day 8 and 15. Animals were sacrificed after last dose and tissue was collected and preserved as previously described (See Xenograft studies section).

pERK in KPF/FC tumors = test: PK/PD in KPF/FC tumors (pERK IHC); type: in vivo; conditions: Mus musculus, read-out: EC50, pERK inhibition vs RMC-7977 concentration in tumors
Procedure: (§1) Tumor formation in KPF/FC (KrasLSL.G12D/+; p53flox/flox; Pdx1-Cre) mice was monitored by bi-weekly palpations until the detection of a mass, which was then confirmed by ultrasound. Tumor-bearing mice were randomized and assigned into groups (n=3/dose/timepoint). Single dose of RMC-7977 was administered orally at 10 mg/kg, 25 mg/kg and 50 mg/kg. The same vehicle formulation was used for the control group. Whole blood and tissue (tumors and colons) were harvested at indicated time points preserved as previously described (See Xenograft studies section).
Whole blood, tumor, colon and skin tissue concentrations of RMC-7977 were determined using liquid chromatography-tandem mass spectrometry (LC-MS/MS) methods. Tissue samples were homogenized with a 5× or 10× volume of homogenization buffer (methanol/15 mM PBS (1:2; v:v) or 15 mM PBS with 10% methanol). […] After thorough mixing and centrifugation, the supernatant was directly analyzed on a Sciex 6500+ triple quadrupole mass spectrometer equipped with an ACQUITY or Shimadzu UPLC system. […] RMC-7977 and IS (verapamil or terfenadine) were detected by positive electrospray ionization using multiple reaction monitoring (RMC-7977: m/z 865.4/706.4 or m/z 865.3/833.5; verapamil: m/z 455.2/164.9; terfenadine: m/z 472.3/436.4). The lower limit of quantification was 0.5 ng/mL or 2.0 ng/mL for blood, tumor, and other tissue. […]

[2] = system: CC3+ apoptotic cells, Cyclin A2; test: CC3 and Cyclin A2 IHC in KPF/FC mice (tumor, colon); type: in vivo, mouse
Procedure: as §1
All tissues were fixed for up to 24 hours using 10% neutral buffered formalin and then moved to 70% ethanol for long term storage. All stainings were performed on 4-μm tissue sections. Sections were deparaffinized using a Leica XL ST5010 autostainer, after which slides were subjected to heat-activated epitope retrieval. To block endogenous peroxidases, 20 min incubation in 3% H2O2 (Fisher Scientific) was performed. Slides were further blocked in serum for 1 hour, and primary antibodies were added for overnight incubation at 4° C. The next day, slides were washed and incubated with ImmPRESS HRP Horse Anti-Rabbit IgG Polymer Detection Kit (Vector Laboratories, MP-7401) for 30 min. Following incubation, ImmPACT DAB peroxidase (Vector Laboratories, SK-4100) was used to develop the stain and hematoxylin was used as nuclear counterstain. Stained slides were imaged at 40× magnification. Quantitative analyses of IHC images were performed using ImageJ.

[3] = system: 796 human tumor cell lines; test: PRISM multiplex cell line screening; type: cell-based; conditions: 5 days; relative to the other cell lines of the screen
Procedure: The PRISM cell set consisted of 796 cell lines representing more than 45 lineages, which largely overlapped with the Cancer Cell Line Encyclopedia (CCLE) (portals.broadinstitute.org/ccle). Cell lines were grown in RPMI without phenol red, supplemented with 10% or 20% FBS for adherent and suspended lines, respectively. Parental cell lines were stably infected with a unique 24-nucleotide DNA barcode via lentiviral transduction and blasticidin selection. After selection, barcoded cell lines were expanded and subjected to quality control (mycoplasma contamination test, a SNP test for confirming cell line identity, and barcode ID confirmation). Approved cell lines were then pooled (20-25 cell lines per pool) based on doubling time similarity and frozen in assay-ready vials.
RMC-7977 was added to 384-well plates at 8-point concentration with 3-fold dilutions in triplicate. These assay-ready plates were then seeded with the thawed cell line pools. […]
Each cell line's unique barcode is located in the 3′UTR of the blasticidin resistance gene and therefore is expressed as mRNA. […] Finally, Luminex beads that recognize the specific barcode sequences in the cell set were hybridized to the PCR products and detected using a Luminex scanner which reports signal as a median fluorescent intensity (MFI). […]

`CCn1c(-c2cc(N3CCN(C4CC4)CC3)cnc2[C@H](C)OC)c2c3cc(ccc31)-c1csc(n1)C[C@H](NC(=O)[C@H]1[C@@H]3COC[C@@H]31)C(=O)N1CCC[C@H](N1)C(=O)OCC(C)(C)C2` [RMC-7977] was tested, and the tumor response ([1]; KPCY, C57Bl/6) was “regressions in most tumors”, the “impact on animal weight” value [1] was “little impact” and the EC50 (pERK in KPF/FC tumors) was 321 nM. For the same molecule, the “time to full restoration of Cyclin A2 levels in normal colon” value ([2]; KPF/FC mice) was no more than 24 h, the “proliferation (Cyclin A2) in normal colon” value ([2]; KPF/FC mice, at 12 hours) was “transient decrease” and the “spike in CC3+ apoptotic cells in tumors” value ([2]; KPF/FC tumors, four hours after a single dose) was roughly 4 fold. The “apoptosis in normal tissues” value ([2]; all doses and time points) was “negligible or absent” and the “sensitivity of human PDAC cell lines in PRISM screen (AUC)” value [3] was “among the most sensitive”.
